One may read the IC50 as the point on the concentration scale where inhibition reaches its midpoint. Low values mean inhibition by little substance, high ones a need for much substance.

Some results are limits rather than exact numbers.

In US20250326772A1, “MRGPRX2 ANTAGONISTS, PHARMACEUTICAL COMPOSITION INCLUDING MRGPRX2 ANTAGONIST, AND METHOD OF TREATING MRGPRX2-MEDIATED DISEASE OR DISORDER” (KYORIN PHARMACEUTICAL CO., LTD., priority 2024, published 2025) one finds IC50 and Inhibition % data, which are given here for 45 compounds.

One experiment deals with T1, MRGPRX2 (Homo sapiens, UniProt Q96LB1).
T1 sequence (Q96LB1 1-330): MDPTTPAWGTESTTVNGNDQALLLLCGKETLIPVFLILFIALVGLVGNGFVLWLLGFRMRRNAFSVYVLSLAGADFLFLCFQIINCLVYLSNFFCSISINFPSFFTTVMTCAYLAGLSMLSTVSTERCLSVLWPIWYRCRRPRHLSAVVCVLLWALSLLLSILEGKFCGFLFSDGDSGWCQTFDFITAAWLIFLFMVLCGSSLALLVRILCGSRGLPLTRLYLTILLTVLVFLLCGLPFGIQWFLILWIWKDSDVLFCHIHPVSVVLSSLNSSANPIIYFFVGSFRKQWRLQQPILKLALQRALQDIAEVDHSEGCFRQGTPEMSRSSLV
Put plainly: MRGPRX2 reporter cell assay (NFAT-RE luciferase, Substance P stimulation). In kind it is cell-based. To be noted: U2OS cells stably transfected with MRGPRX2 and NFAT-RE luciferase reporter, Substance P at EC80. The essentials: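 U2OS cells stably expressing MRGPRX2 and an NFAT-RE luc2P reporter, pre-incubated 30 min at 37° C with compound (0.5% DMSO), then stimulated with Substance P at EC80 for 6 h. Luminescence after ONE-GLO; percent inhibition fitted by four-parameter logistic to IC50.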
Background: A reporter such as luciferase makes a cellular process visible.

For experiment [1], the system named is humanized mice (NOG-hGM-CSF/hIL-3 Tg mice). As to the kind of experiment: Evans blue vascular permeability assay ((R)-Zinc3573-induced, ear). In kind it is in vivo. To be noted: 10 mg/kg orally, 30 min before intradermal (R)-Zinc3573 3 μM into the ear; Evans blue dye; mean and standard error of mean. The procedure: Experimental Example 2: Evans Blue Vascular Permeability Assay
Twenty-five to twenty-six-week-old humanized mice (NOG-hGM-CSF/hIL-3 Tg mice at 17-18 weeks after transplantation of human umbilical cord blood-derived CD34+ cells; Central Institute for Experimental Animals) were anesthetized with isoflurane and injected intravenously with 200 μL of 0.5% Evans blue (cat. no. 056-04061; FUJIFILM Wako Pure Chemical Corporation). Subsequently, vehicle (0.5w/v % Methyl Cellulose) or 10 mg/kg of EX.381 were orally administered. After 30 minutes, animals were anesthetized with isoflurane and injected intradermally with 10 μL of (R)-Zinc3573 ((R)-Zinc; 3 μM, cat. no. SML1699; Sigma-Aldrich) into the right ear or with saline (0.1% DMSO) into the left ear as a control. Fifteen minutes after intradermal injection, animals were sacrificed and the ears were collected in 1.5 mL tubes. Evans blue dye was extracted from the tissue by adding 150 μL of N, N-dimethyl formamide (cat. no. 04096-34; nacalai tesque) for 12 hours at 55° C. […] The plate was read at 620 nm and 740 nm on a plate reader and the Evans blue dye concentration in each sample was determined by a standard curve using corrected absorbance (corrected absorbance=A620-A740). […] Data is expressed as mean and standard error of mean. […]

Take `[2H]C([2H])([2H])Oc1ccc(C#N)c(-c2c(-c3cn(C)nc3C(F)F)[nH]c3ncccc23)c1` [EX. 381]: the half-inhibitory concentration (IC50) on MRGPRX2 (class symbols) was under 10 nM. In experiment [1], this compound yielded an Inhibition % of 76.1 ± 12.1%. Turning to `CCn1cc(-c2c(-c3c(C(F)F)nn4c3OCCC4)[nH]c3ncccc23)c(OC(F)F)n1` [EX. 400, 3-[3-[3-(difluoromethoxy)-1-ethyl-pyrazol-4-yl]-1H-pyrrolo[2,3-b]pyridin-2-yl]-2-(difluoromethyl)-6,7-dihydro-5H-pyrazolo[5,1-b] [1,3]oxazine], the IC50 against MRGPRX2 (class symbols) was in the range of 10 to 100 nM.

With `Cn1cc(-c2c(-c3c(C(F)F)nn4c3OC[C@@H](NC(=O)C3CC3)C4)[nH]c3ncccc23)c(OC(F)F)n1` [EX. 559], the IC50 on MRGPRX2 is 3 nM; at MRGPRX2 (class symbols) it was under 10 nM.

With `[2H]C([2H])([2H])Oc1ccc(C#N)c(-c2c(-c3c(C)nn4cccnc34)[nH]c3ncccc23)c1` [EX. 236], the IC50 on MRGPRX2 (class symbols) was under 10 nM.

`Cc1cc(-c2c(-c3c(C4CC4)nn4c3OC[C@@H](NS(C)(=O)=O)C4)[nH]c3ncccc23)c(C#N)s1` [EX. 457] displayed an IC50 against MRGPRX2 (class symbols) of under 10 nM.

As to `O[C@@H]1COc2c(-c3[nH]c4ncccc4c3-c3cccnc3OC(F)F)c(C3CC3)nn2C1` [EX. 455], the IC50 on MRGPRX2 (class symbols) is under 10 nM. Take `COC(=O)N[C@@H]1COc2c(-c3[nH]c4ncccc4c3-c3cc(C)sc3C#N)c(C(F)F)nn2C1` [EX. 516]: at MRGPRX2 (class symbols), the concentration for half-maximal inhibition (IC50) is under 10 nM.

`COC(=O)N[C@@H]1COc2c(-c3[nH]c4ncccc4c3-c3cn(C)nc3OC(F)F)c(C)nn2C1` [EX. 546] gave an IC50 against MRGPRX2 (class symbols) of under 10 nM. Same read-out and setting: the same measure for `FC(F)Oc1nocc1-c1c(-c2c(C(F)F)nn3c2OCCC3)[nH]c2ncccc12` [EX. 407]: 10 to 100 nM.

As for `CCc1nn2c(c1-c1[nH]c3ncccc3c1-c1cn(C)nc1OC(F)F)OCCC2` [EX. 422], the IC50 against MRGPRX2 is 5.8 nM; at MRGPRX2 (class symbols), under 10 nM.

On MRGPRX2 (class symbols), `FC(F)Oc1nscc1-c1c(-c2c(C(F)F)nn3c2OCCC3)[nH]c2ncccc12` [EX. 402] had an IC50 of under 10 nM. Still for that read-out and setting: the result for `Cc1cc(-c2c(-c3c(C(F)F)nn4c3OC[C@@H](OCCO)C4)[nH]c3ncccc23)c(C#N)s1` [EX. 507] reads under 10 nM; that for `COc1ccc(C#N)c(-c2c(-c3c(C(F)F)nn4c3OCC(N)C4)[nH]c3ncccc23)c1` (stereo not drawn) [EX. 357], under 10 nM; that for `Cn1cc(-c2c(-c3c(C(F)F)nn4c3OC[C@@H](F)C4)[nH]c3ncccc23)c(OC(F)F)n1` [EX. 434], under 10 nM.

Turning to `Cn1cc(-c2c(-c3c(C(F)F)nn4c3OC[C@@H](NC(=O)CC(C)(C)O)C4)[nH]c3ncccc23)c(OC(F)F)n1` [EX. 586, (S)—N-(3-(3-(3-(difluoromethoxy)-1-methyl-1H-pyrazol-4-yl)-1H-pyrrolo[2,3-b]pyridin-2-yl)-2-(difluoromethyl)-6,7-dihydro-5H-pyrazolo[5,1-b] [1,3]oxazin-6-yl)-3-hydroxy-3-methylbutanamide], at MRGPRX2 (class symbols), the IC50 was under 10 nM. In the case of `O[C@@H]1COc2c(-c3[nH]c4ncccc4c3-c3cccnc3OC(F)F)c(C(F)F)nn2C1` [EX. 454], at MRGPRX2 (class symbols), the IC50 is under 10 nM.

In turn, `Cn1cc(-c2[nH]c3ncccc3c2-c2ccccc2C#N)c(CF)n1` [EX. 270] showed an IC50 against MRGPRX2 (class symbols) of under 10 nM. For `COC(=O)N[C@@H]1COc2c(-c3[nH]c4ncccc4c3-c3cn(C)nc3OC(F)F)c(C(F)F)nn2C1` [EX. 571], the figures for the IC50 on MRGPRX2 and at MRGPRX2 (class symbols) were 1.2 nM and under 10 nM, respectively. For the compound `COC(=O)N(C)[C@@H]1COc2c(-c3[nH]c4ncccc4c3-c3cn(C)nc3OC(F)F)c(C(F)F)nn2C1` [EX. 578], the IC50 at MRGPRX2 (class symbols) was under 10 nM. For the compound `Cc1cc(-c2c(-c3c(C(F)F)nn4c3OC[C@@H](F)C4)[nH]c3ncccc23)c(C#N)s1` [EX. 450], the IC50 against MRGPRX2 (class symbols) was under 10 nM. Turning to `Cc1ccc(F)c(-c2c(-c3cc(F)ccc3O)[nH]c3ncccc23)c1` [EX. 344], at MRGPRX2 (class symbols), the 50% inhibitory concentration (IC50) is under 10 nM. At MRGPRX2 (class symbols), `[2H]C([2H])([2H])Oc1ccc(C#N)c(-c2c(-c3c(C)nn4c3OCCC4)[nH]c3ncccc23)c1` [EX. 239] came in with an IC50 of under 10 nM. As for `[2H]C([2H])([2H])Oc1ccc(C#N)c(-c2c(-c3c(C)nn4c3OCC4)[nH]c3ncccc23)c1` [EX. 238], the IC50 at MRGPRX2 (class symbols) was under 10 nM. As to `Cc1cc(-c2c(-c3c(C(F)F)nn4c3OC[C@@](C)(O)C4)[nH]c3ncccc23)c(C#N)s1` [EX. 451], the IC50 against MRGPRX2 (class symbols) was under 10 nM. Same read-out and setting: the same measure for `Cn1cc(-c2c(-c3c(C(F)F)nn4c3OC[C@@H](NC(=O)C3CC(F)(F)C3)C4)[nH]c3ncccc23)c(OC(F)F)n1` [EX. 554]: under 10 nM. On the same count and under the same terms, the result for `N#Cc1ncccc1-c1c(-c2c(C(F)F)nn3c2OC[C@@H](OCCO)C3)[nH]c2ncccc12` [EX. 508] reads under 10 nM.

`Cc1cc(-c2c(-c3c(C(F)F)nn4c3OC[C@@H](NS(C)(=O)=O)C4)[nH]c3ncccc23)c(C#N)s1` [EX. 525] yielded a half-maximal inhibitory concentration (IC50) at MRGPRX2 (class symbols) of under 10 nM. Regarding `Cn1cc(-c2c(-c3c(C(F)F)nn4c3OC[C@@H](OCCO)C4)[nH]c3ncccc23)c(OC(F)F)n1` [EX. 534], the IC50 was 2.1 nM against MRGPRX2 and under 10 nM against MRGPRX2 (class symbols). As for `Cn1cc(-c2c(-c3c(C(F)F)nn4c3OC[C@@H](N3CCCS3(=O)=O)C4)[nH]c3ncccc23)c(OC(F)F)n1` [EX. 580], the IC50 against MRGPRX2 (class symbols) is under 10 nM. Consider `Cn1cc(-c2c(-c3c(C(F)F)nn4c3OC[C@@H](N)C4)[nH]c3ncccc23)c(OC(F)F)n1` [EX. 543], for which the half-maximal inhibitory concentration (IC50) against MRGPRX2 (class symbols) is under 10 nM.

In turn, `[2H]C([2H])([2H])Oc1ccc(C#N)c(-c2c(-c3c(C(F)F)nn4c3OC[C@H](O)C4)[nH]c3ncccc23)c1` [EX. 370] showed an IC50 against MRGPRX2 (class symbols) of under 10 nM. Compound `[2H]C([2H])([2H])Oc1ccc(C#N)c(-c2c(-c3c(C(F)F)nn4c3OCC(OC)C4)[nH]c3ncccc23)c1` (stereo not drawn) [EX. 201] returned an IC50 on MRGPRX2 (class symbols) of under 10 nM. As for `[2H]C([2H])([2H])Oc1ccc(C#N)c(-c2c(-c3c(C)nn4c3NCC4)[nH]c3ncccc23)c1` [EX. 168], the IC50 against MRGPRX2 (class symbols) is under 10 nM. With `Cn1cc(-c2[nH]c3ncccc3c2-c2ccccc2C#N)c(C(F)(F)F)n1` [EX. 128], at MRGPRX2 (class symbols), the half-maximal inhibitory concentration (IC50) was under 10 nM. With `Cn1cc(-c2c(-c3c(C(F)F)nn4c3OC[C@@H](NS(C)(=O)=O)C4)[nH]c3ncccc23)c(OC(F)F)n1` [EX. 526, (S)—N-(3-(3-(3-(difluoromethoxy)-1-methyl-1H-pyrazol-4-yl)-1H-pyrrolo[2,3-b]pyridin-2-yl)-2-(difluoromethyl)-6,7-dihydro-5H-pyrazolo[5,1-b] [1,3]oxazin-6-yl) methanesulfonamide], the IC50 on MRGPRX2 (class symbols) was under 10 nM. In the case of `Cc1nn2c(c1-c1[nH]c3ncccc3c1-c1cn(C)nc1OC(F)F)OC[C@@H](O)C2` [EX. 480, (S)-3-(3-(3-(difluoromethoxy)-1-methyl-1H-pyrazol-4-yl)-1 H-pyrrolo[2,3-b]pyridin-2-yl)-2-methyl-6,7-dihydro-5H-pyrazolo[5,1-b] [1,3]oxazin-6-ol], the IC50 on MRGPRX2 (class symbols) is under 10 nM. The compound `CN(C)CCO[C@@H]1COc2c(-c3[nH]c4ncccc4c3-c3cn(C)nc3OC(F)F)c(C(F)F)nn2C1` [EX. 538] returned an IC50 at MRGPRX2 (class symbols) of under 10 nM. In turn, `COc1ccc(C#N)c(-c2c(-c3c(C(F)F)nn4c3OCC(NC(=O)OC(C)(C)C)C4)[nH]c3ncccc23)c1` (stereo not drawn) [EX. 257] showed an IC50 against MRGPRX2 (class symbols) of under 10 nM. `Cn1cc(-c2c(-c3c(C(F)F)nn4c3OC[C@@H](NC(=O)C3(C(N)=O)CC3)C4)[nH]c3ncccc23)c(OC(F)F)n1` [EX. 585] registered an IC50 at MRGPRX2 (class symbols) of under 10 nM. In the case of `COc1ccc(C#N)c(-c2c(-c3c(C)nn4cc(F)cnc34)[nH]c3ncccc23)c1` [EX. 182], the IC50 against MRGPRX2 (class symbols) is under 10 nM.

Turning to `COC(=O)N[C@@H]1COc2c(-c3[nH]c4ncccc4c3-c3cn(C)nc3C#N)c(C(F)F)nn2C1` [EX. 517], the IC50 is 3.2 nM against MRGPRX2 and under 10 nM on MRGPRX2 (class symbols). For `[2H]C([2H])([2H])Oc1ccc(F)cc1-c1[nH]c2ncccc2c1-c1ccccc1C#N` [EX. 346], the IC50 at MRGPRX2 (class symbols) was under 10 nM. Same read-out and setting: the result for `Cn1cc(-c2c(-c3c(C(F)F)nn4c3OC[C@@H](NC(=O)OC3CCOC3)C4)[nH]c3ncccc23)c(OC(F)F)n1` (stereo partly drawn) [EX. 566] reads under 10 nM; that for `Cn1cc(-c2c(-c3c(C(F)F)nn4c3OC[C@@H](NS(=O)(=O)C3(C)CC3)C4)[nH]c3ncccc23)c(OC(F)F)n1` [EX. 574], under 10 nM; that for `Cn1cc(-c2c(-c3c(C(F)F)nn4c3OC[C@@H](NC(=O)OCC(N)=O)C4)[nH]c3ncccc23)c(OC(F)F)n1` [EX. 584], under 10 nM.
